# Reference: patent US9066894B2, “Carbohydrate binding molecules” (priority 2008, dated 2015)
# Several values for one entry are separate records, joined by “and”; a condition that tells them apart may be missing. Identical values can stand only once.
# Target: isolated CBM40 from V. cholerae sialidase (Vibrio cholerae serotype O1, UniProt P0C6E9)
# Conditions: ITC, 25° C.; for n (number of binding sites): 10 mM HEPES pH7.4, 0.15M NaCl
# Chain of isolated CBM40 from V. cholerae sialidase (P0C6E9 25-216): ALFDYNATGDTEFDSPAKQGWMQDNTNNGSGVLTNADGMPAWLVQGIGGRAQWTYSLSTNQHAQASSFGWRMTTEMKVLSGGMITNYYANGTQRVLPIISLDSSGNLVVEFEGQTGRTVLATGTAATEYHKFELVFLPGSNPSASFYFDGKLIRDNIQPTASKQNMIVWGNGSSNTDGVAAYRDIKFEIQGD
Structure (SMILES),Ka,Kd,TΔS,ΔG,ΔH,n (number of binding sites)
"CC(=O)N[C@H]1[C@H]([C@H](O)[C@H](O)CO)O[C@@](O[C@H]2[C@@H](O)[C@@H](CO)O[C@@H](O[C@H]3[C@H](O)[C@@H](O)C(O)O[C@@H]3CO)[C@@H]2O)(C(=O)O)C[C@@H]1O (stereo partly drawn) [3′SL, 3′sialyllactose]",5.48 ± 0.05 10^−4M,18 µM,-41 kJ/mol,-27.2 kJ/mol,-68.2 ± 0.21 kJ/mol,0.96 ± 0.002
"CC(=O)N[C@H]1[C@H]([C@H](O)[C@H](O)CO)O[C@@](OC[C@H]2O[C@@H](O[C@H]3[C@H](O)[C@@H](O)[C@H](O)O[C@@H]3CO)[C@H](O)[C@@H](O)[C@H]2O)(C(=O)O)C[C@@H]1O [6′SL, 6′sialyllactose]",5.16 ± 0.03 10^−4M,19 µM,-14.6 kJ/mol,-26.8 kJ/mol,-41.4 ± 0.0084 kJ/mol,1.02 ± 0.001
"CC(=O)N[C@H]1[C@H]([C@H](O)[C@H](O)CO)O[C@@](O[C@H](CO)[C@@H](O)[C@@H]2O[C@@](O[C@H]3[C@@H](O)[C@@H](CO)O[C@@H](O[C@H]4[C@H](O)[C@@H](O)C(O)O[C@@H]4CO)[C@@H]3O)(C(=O)O)C[C@H](O)[C@H]2NC(C)=O)(C(=O)O)C[C@@H]1O (stereo partly drawn) [DSL, disialyllactose]",10.2 ± 0.01 10^−4M,9.8 µM,-23.8 kJ/mol,-28.5 kJ/mol,-52.3 kJ/mol and -52.3 ± 0.013 kJ/mol,0.92 and 0.92 ± 0.001
"CC(=O)N[C@H]1[C@H](O[C@H]2[C@@H](O)[C@@H](CO)O[C@@H](O[C@@H]([C@H](O)[C@@H](O)C=O)[C@H](O)CO)[C@@H]2O)O[C@H](CO[C@]2(C(=O)O)C[C@H](O)[C@@H](NC(C)=O)[C@H]([C@H](O)[C@H](O)CO)O2)[C@@H](O)[C@@H]1O[C@@H]1O[C@H](CO)[C@H](O)[C@H](O[C@]2(C(=O)O)C[C@H](O)[C@@H](NC(C)=O)[C@H]([C@H](O)[C@H](O)CO)O2)[C@H]1O [DSLNT, disialyl-lacto-N-tetraose]",7.8 ± 0.06 10^−4M,13 µM,-72.4 kJ/mol,-28 kJ/mol,-100 kJ/mol and -100 ± 0.029 kJ/mol,0.57 and 0.57 ± 0.001
